Assays:
[1] = molecular target: T1, full length p300 (Homo sapiens, UniProt Q09472); experiment: In vitro p300 butyrylation assay (immunoblot); type: biochemical; conditions: for effect on p300 catalysed butyrylation: FIG. 2 legend
T1 construct: Purified full length p300 protein was used for in vitro acetylation/butyrylation assay
Protocol: (§1) Purified full length p300 protein was used for in vitro acetylation/butyrylation assay in presence/absence of different compounds. Acylation reactions were performed in reaction buffer (25 mM Tris-HCl PH 7.5, 100 mM NaCl, 0.1 mM EDTA, 1 mM DTT, 10% Glycerol, 1×PIC) with 100 ng/ml TSA, and 50 μM Butyryl-CoA/Acetyl COA. Xenopus histone H3 (500 ng) was used as the substrate and p300 (10,000 cpm activity) was used as the enzyme. Reactions were incubated in presence or absence of small molecule modulators (including compound of Formula I) for 10 minutes at 30° C., followed by initiation of the acetylation/butyrylation reaction by the addition of acetyl/butyryl CoA. After a further 10 minutes, reactions were stopped by addition of Laemmli buffer and samples were used for immunoblotting.
(§2) Immunoblotting with antibodies against acetylated H3K18, acetylated H3K9 and pan-butyryl lysine was performed to check for the relative inhibition of acetyl transferase and butyryl transferase activities of full length p300 by garcinol, isogarcinol and its different derivatives including compound of Formula I at different concentrations. FIG. 2i depicts the effect of garcinol, isogarcinol and two of its derivatives LTK-13 and LTK-14 on p300 catalysed acetyltransferase activity. […] FIG. 2ii depicts the effect of LTK-14 on acetylation and butyrylation catalysed by p300. Lane 1, enzyme alone; Lane 2-4, enzyme+LTK-14 at concentrations 500 nM, 2 μM and 10 μM, respectively. LTK-14 could inhibit acetylation at 10 μM concentration while butyrylation was inhibited at 2 μM concentration. FIG. 2iii depicts the effect of compound x on acetylation and butyrylation catalysed by p300. Lane 1, enzyme alone; Lane 2, enzyme+DMSO; Lane 3-6, enzyme+compound x at concentrations 10, 15, 20 and 25 μM, respectively.

[2] = molecular target: T1, full length p300; experiment: In vitro p300 acetylation assay (immunoblot); type: biochemical; conditions: for effect on p300 catalysed acetyltransferase activity: FIG. 2i, immunoblot
Protocol: as §1, §2

[3] = tested at 500 nM, 2 μM and 10 μM

T1 sequence (Q09472 whole entry, species assumed): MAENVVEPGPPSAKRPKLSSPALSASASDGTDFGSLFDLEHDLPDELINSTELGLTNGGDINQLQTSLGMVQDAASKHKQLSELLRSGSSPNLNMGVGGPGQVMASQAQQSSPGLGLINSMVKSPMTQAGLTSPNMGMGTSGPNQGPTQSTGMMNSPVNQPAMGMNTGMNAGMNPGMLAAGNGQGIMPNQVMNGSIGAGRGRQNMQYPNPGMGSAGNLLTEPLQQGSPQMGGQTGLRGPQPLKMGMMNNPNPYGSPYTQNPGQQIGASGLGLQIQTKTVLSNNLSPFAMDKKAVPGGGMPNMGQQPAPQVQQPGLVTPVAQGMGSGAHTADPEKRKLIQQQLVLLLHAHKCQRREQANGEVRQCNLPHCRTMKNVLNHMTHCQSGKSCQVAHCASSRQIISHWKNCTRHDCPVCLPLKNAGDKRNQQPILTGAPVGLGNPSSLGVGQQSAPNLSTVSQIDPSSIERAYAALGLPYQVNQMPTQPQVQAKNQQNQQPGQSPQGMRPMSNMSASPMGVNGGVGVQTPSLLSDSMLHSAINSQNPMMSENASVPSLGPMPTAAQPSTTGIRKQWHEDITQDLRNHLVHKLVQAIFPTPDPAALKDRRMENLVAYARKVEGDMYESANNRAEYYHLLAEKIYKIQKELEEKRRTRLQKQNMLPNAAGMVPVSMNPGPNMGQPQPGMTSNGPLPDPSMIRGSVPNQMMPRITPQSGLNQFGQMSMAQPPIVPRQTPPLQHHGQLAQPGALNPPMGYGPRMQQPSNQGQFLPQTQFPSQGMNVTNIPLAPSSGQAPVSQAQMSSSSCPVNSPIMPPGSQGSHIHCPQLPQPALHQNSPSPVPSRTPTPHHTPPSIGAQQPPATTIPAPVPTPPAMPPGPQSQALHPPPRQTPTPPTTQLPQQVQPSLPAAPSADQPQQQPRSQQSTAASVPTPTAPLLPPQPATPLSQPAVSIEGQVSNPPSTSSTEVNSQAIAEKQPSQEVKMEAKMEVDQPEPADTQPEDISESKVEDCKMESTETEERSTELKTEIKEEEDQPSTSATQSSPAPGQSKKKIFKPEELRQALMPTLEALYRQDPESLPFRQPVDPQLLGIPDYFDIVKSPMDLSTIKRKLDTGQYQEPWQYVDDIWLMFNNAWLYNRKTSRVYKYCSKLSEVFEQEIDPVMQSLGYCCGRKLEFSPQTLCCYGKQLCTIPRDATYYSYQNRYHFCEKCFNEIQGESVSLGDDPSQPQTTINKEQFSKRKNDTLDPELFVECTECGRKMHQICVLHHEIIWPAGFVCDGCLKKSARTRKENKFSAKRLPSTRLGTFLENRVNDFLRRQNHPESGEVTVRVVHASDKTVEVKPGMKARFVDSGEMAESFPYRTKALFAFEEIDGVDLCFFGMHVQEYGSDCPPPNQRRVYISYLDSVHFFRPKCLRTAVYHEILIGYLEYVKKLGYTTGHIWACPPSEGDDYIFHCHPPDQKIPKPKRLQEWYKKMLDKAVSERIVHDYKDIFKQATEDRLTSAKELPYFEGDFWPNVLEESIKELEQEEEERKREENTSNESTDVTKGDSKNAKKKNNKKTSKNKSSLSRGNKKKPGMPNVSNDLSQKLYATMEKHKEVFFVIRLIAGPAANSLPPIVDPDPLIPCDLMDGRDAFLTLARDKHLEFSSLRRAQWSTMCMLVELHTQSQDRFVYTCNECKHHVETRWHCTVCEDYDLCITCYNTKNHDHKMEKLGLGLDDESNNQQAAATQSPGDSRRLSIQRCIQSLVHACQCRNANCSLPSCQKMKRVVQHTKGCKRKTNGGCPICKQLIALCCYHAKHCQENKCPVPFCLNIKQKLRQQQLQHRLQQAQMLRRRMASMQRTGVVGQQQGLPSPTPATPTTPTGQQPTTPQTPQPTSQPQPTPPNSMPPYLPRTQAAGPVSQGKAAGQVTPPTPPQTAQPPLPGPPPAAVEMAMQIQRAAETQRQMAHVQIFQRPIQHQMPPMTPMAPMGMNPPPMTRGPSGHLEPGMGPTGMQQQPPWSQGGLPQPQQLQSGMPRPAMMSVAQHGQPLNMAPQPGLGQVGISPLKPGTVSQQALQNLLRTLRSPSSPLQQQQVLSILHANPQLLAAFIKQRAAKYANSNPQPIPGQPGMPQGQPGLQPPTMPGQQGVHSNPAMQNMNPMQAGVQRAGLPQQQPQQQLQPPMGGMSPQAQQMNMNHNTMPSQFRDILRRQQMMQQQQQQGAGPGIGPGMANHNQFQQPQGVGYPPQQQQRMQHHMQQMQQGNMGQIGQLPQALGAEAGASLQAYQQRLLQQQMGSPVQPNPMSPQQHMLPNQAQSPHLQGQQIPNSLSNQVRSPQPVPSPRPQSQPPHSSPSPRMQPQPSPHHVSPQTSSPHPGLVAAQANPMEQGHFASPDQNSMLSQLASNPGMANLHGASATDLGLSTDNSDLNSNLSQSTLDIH

Structure (SMILES)	effect on p300 catalysed butyrylation [1]	concentration at which butyrylation was inhibited [1, 3] [µM]	effect on p300 catalysed acetyltransferase activity [2]	concentration at which acetylation was inhibited [2, 3] [µM]
COc1ccc(C(=O)C2=C3OC(C)(C)[C@@H](CC=C(C)C)C[C@@]34C[C@@H](CC=C(C)C)C(C)(C)[C@@](CC=C(C)C)(C2=O)C4=O)cc1O [LTK-14]	can inhibit	2	showed inhibitory effect	10
CC(C)=CC[C@H]1C[C@@]23C[C@@H](CC=C(C)C)C(C)(C)[C@@](CC=C(C)C)(C(=O)C(C(=O)c4ccc(O)c(O)c4)=C2OC1(C)C)C3=O [isogarcinol]	can inhibit	–	showed inhibitory effect	–

Source: US20240269106A1, “SMALL MOLECULE MODULATOR TARGETING A RARE HISTONE MODIFICATION REGULATING ADIPOGENESIS AND PHARMACEUTICAL FORMULATION THEREOF” (COUNCIL OF SCIENTIFIC AND INDUSTRIAL RESEARCH AN INDIAN …, priority 2021, published 2024)
